Measurements from PubChem BioAssay (NCI).
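Five concentrations, 48 hours, 96-well plates. TGI denotes the concentration required for complete inhibition of growth.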

Tests used:
Test in all cases: NCI anticancer screen, dose series, 48 h
HOP-62 NSCLC = tested on: HOP-62 NSCLC
NCI-H226 lung = tested on: NCI-H226 lung
TK-10 renal = tested on: TK-10 renal
UACC-62 melanoma = tested on: UACC-62 melanoma
MDA-MB-435 = tested on: MDA-MB-435
SK-MEL-5 melanoma = tested on: SK-MEL-5 melanoma
NCI-H460 lung = tested on: NCI-H460 lung
SF-539 CNS = tested on: SF-539 CNS
NCI-H23 lung = tested on: NCI-H23 lung
A498 renal = tested on: A498 renal

Row | SMILES | TGI (HOP-62 NSCLC) [µM] | TGI (NCI-H226 lung) [µM] | TGI (TK-10 renal) [µM] | TGI (UACC-62 melanoma) [µM] | TGI (MDA-MB-435) [µM] | TGI (SK-MEL-5 melanoma) [µM] | TGI (NCI-H460 lung) [µM] | TGI (SF-539 CNS) [µM] | TGI (NCI-H23 lung) [µM] | TGI (A498 renal) [µM]
1 | O=C1CSC(c2cccs2)N1c1nc2cc3sc(N4C(=O)CSC4c4cccs4)nc3cc2s1 (stereo unspecified) | > 50 | 26.8 | > 50 | > 50 | > 50 | > 50 | > 50 | 3.6 | > 50 | > 50
2 | O=C(Cc1ccccc1)NN1C(=O)/C(=C\c2ccc([N+](=O)[O-])cc2)SC1=Nc1ccccc1 | > 100 | > 100 | > 100 | > 100 | > 100 | > 100 | > 100 | > 100 | > 100 | > 100
3 | NC1CNC(=O)c2c(Cl)sc(Cl)c21 (stereo unspecified) | > 100 | > 100 | > 100 | > 100 | > 100 | – | > 100 | > 100 | > 100 | > 100
4 | O=c1c(-c2ccc(Cl)cc2)nnc2n(Cc3ccccc3)c3ccccc3n12 | 44.9 | > 100 | 61.8 | – | > 100 | > 100 | > 100 | 37.9 | > 100 | 69.5
5 | CCOC(=O)C(NC(=O)CC(C)C)(N1CCN(c2cc3c(cc2F)c(=O)c(C(=O)O)cn3C2CC2)CC1)C(F)(F)F (stereo unspecified) | > 100 | 46.3 | 72.9 | 30.2 | 56.5 | 25.4 | > 100 | 34.7 | 33.5 | 16.8
6 | CCOc1cc(-c2nc3ccccn3c2/N=C/c2cc(Br)ccc2O)ccc1O | 44.8 | > 100 | 48.7 | 57 | > 100 | > 100 | > 100 | > 100 | > 100 | 90.5
7 | Brc1ccc2c(-c3csc(-c4c[nH]c5ccc(Br)cc45)n3)c[nH]c2c1 | 27.1 | 32.1 | 15.2 | 9.2 | 17.7 | 12.8 | 6.89 | 15.1 | 14.2 | 8.42
8 | O=C(CSc1n[nH]c(=O)[nH]c1=O)NNC(=O)c1cccc2nc3ccccc3nc12 | > 100 | > 100 | > 100 | > 100 | > 100 | 45 | > 100 | > 100 | > 100 | > 100
9 | Cc1cc2ncc3c(=O)n(NS(=O)(=O)c4ccc(N)cc4)ccc3n2n1 | > 100 | > 100 | > 100 | > 100 | > 100 | > 100 | > 100 | > 100 | > 100 | > 100
10 | COc1cc(I)c2c3c1OC1C34CCN(C)C(C2)C4=CC(I)C1(OC)OC (stereo unspecified) | 46.3 | 70.5 | 51.1 | 42 | 33.8 | 34 | 38.7 | 40.1 | 54.7 | 86.4
11 | FC(F)(F)c1ccc2nc3n(c2c1)C(c1c(Cl)cccc1Cl)SC3 (stereo unspecified) | 29.8 | 35.4 | 35.4 | 28.6 | 30.5 | – | 35.6 | 33.1 | 37 | 34.8
12 | Brc1cccc(N=NN2CCCC2)c1 | > 100 | > 100 | > 100 | > 100 | > 100 | > 100 | > 100 | > 100 | > 100 | > 100
13 | O=[N+]([O-])c1ccc(NC(=S)N=Nc2c(O)[nH]c3ccc(Br)cc23)cc1 | 30.4 | 38.1 | 28.5 | 18.3 | 25.4 | 33.4 | 21.2 | 82.9 | 12.9 | 17.2
14 | OC1(c2ccc(Cl)cc2)c2ccc3ccccc3c2C2=N[C@H]3CCCC[C@@H]3N21 (stereo partly specified) | 11.5 | > 100 | 4.87 | 41.4 | > 100 | > 100 | > 100 | 43.7 | > 100 | 52.7
15 | c1ccc2c3c(c(N4CCOCC4)nc2c1)CCCC3 | > 100 | 68.1 | > 100 | > 100 | > 100 | 54.7 | > 100 | 61.4 | > 100 | 81.6
16 | CCOC(=O)/C(C#N)=N\Nc1ccc(-n2c(C)nc3ccccc3c2=O)cc1 | > 100 | > 100 | > 100 | > 100 | > 100 | 36.6 | > 100 | > 100 | > 100 | > 100
17 | CC(C)(C)c1cc(/C=C(\C#N)C(=O)NCCO)cc(C(C)(C)C)c1O | 49.6 | 40.7 | 60.9 | 27.5 | 45 | 28.1 | 43.5 | 38.3 | 89.7 | 48.4
18 | COCc1nc2c(OC)cc(-c3nc4ccc(N5CCN(C)CC5)cc4[nH]3)c(OC)c2[nH]1 | > 100 | > 100 | > 100 | > 100 | > 100 | 53.2 | > 100 | 44.6 | > 100 | > 100

Row | SMILES | TGI (HOP-62 NSCLC) [µM] | TGI (NCI-H226 lung) [µM] | TGI (TK-10 renal) [µM] | TGI (UACC-62 melanoma) [µM] | TGI (MDA-MB-435) [µM] | TGI (SK-MEL-5 melanoma) [µM] | TGI (NCI-H460 lung) [µM] | TGI (SF-539 CNS) [µM] | TGI (NCI-H23 lung) [µM] | TGI (A498 renal) [µM]
19 | CCC(=O)Oc1c2ccsc2c(OC(=O)CC)c2ccsc12 | 2.95 | 4.09 | 5.25 | 0.439 | 0.159 | 0.216 | 3.87 | 0.472 | 0.364 | 15
20 | CCOn1c(C2(CC3CCN(C(=O)c4ccccc4)CC3)OCCO2)cc2ccccc21 | 28.3 | 20.4 | 24.7 | 23.4 | 27.4 | 24.6 | 27.1 | 68.1 | 40.6 | 26.1
21 | NC(N)=NS(=O)(=O)c1ccc(NC(=O)c2ccc3nc4ccccc4c(Nc4ccc(S(=O)(=O)N=C(N)N)cc4)c3c2)cc1 | > 100 | > 100 | > 100 | > 100 | > 100 | > 100 | > 100 | > 100 | > 100 | > 100
22 | Nc1c(C(=O)c2ccc(Cl)cc2)[nH]c(NCc2ccccc2)c1C(=S)Nc1ccccc1 | 12.9 | 27.2 | 4.25 | 21 | 3.14 | – | 3.49 | 13.8 | 5.95 | 23
23 | COc1cc(CN2CCCCC2)cc2cc(C(=O)O)c(=O)oc12 | > 100 | > 100 | > 100 | > 100 | > 100 | > 100 | > 100 | > 100 | > 100 | > 100
24 | CC1(C)C=C(S(=O)(=O)c2ccccc2)Oc2ccccc2O1 | > 100 | > 100 | 36 | > 100 | 48 | 28.9 | > 100 | > 100 | > 100 | > 100
25 | CCNC(=O)C1CCCN1C(=O)C(CCCN=C(N)N)NC(=O)C(CC(C)C)NC(=O)C(Cc1c[nH]c2ccccc12)NC(=O)C(Cc1ccc(O)cc1)NC(=O)C(CO)NC(=O)C(Cc1c[nH]c2ccccc12)NC(=O)C(Cc1cnc[nH]1)NC(=O)C1CCC(=O)N1 (stereo unspecified) | > 100 | > 100 | > 100 | > 100 | > 100 | > 100 | > 100 | > 100 | > 100 | > 100
26 | Cn1c([O-])nc(-n2cc[n+](C)c2)cc1=O | > 100 | > 100 | > 100 | > 100 | > 100 | > 100 | > 100 | > 100 | > 100 | > 100
27 | Cc1c2ncccc2cc2oc3ccccc3c(=O)c12 | > 100 | > 100 | > 100 | > 100 | > 100 | > 100 | > 100 | > 100 | > 100 | > 100
28 | CC1(CNCc2ccccc2)CC(CCc2ccccc2)N(C(=O)c2ccc([N+](=O)[O-])cc2)C1Cc1ccc(O)cc1 (stereo unspecified) | 31.1 | 24.1 | 30.9 | 28.9 | 28.2 | 17.3 | 30.8 | 35.2 | 23.5 | 26.7
29 | CC(=S)N=Cc1c(O)cc(C)oc1=O | > 100 | > 100 | > 100 | > 100 | > 100 | > 100 | > 100 | > 100 | > 100 | > 100
30 | O=c1oc2cc(O)ccc2c(O)c1C(c1ccc(C(c2c(O)c3ccc(O)cc3oc2=O)c2c(O)c3ccc(O)cc3oc2=O)cc1)c1c(O)c2ccc(O)cc2oc1=O | > 100 | > 100 | > 100 | > 100 | > 100 | > 100 | > 100 | > 100 | > 100 | > 100
31 | Cc1nc(C)c(Cc2ccccc2)o1 | > 100 | > 100 | > 100 | > 100 | > 100 | > 100 | > 100 | > 100 | > 100 | > 100
32 | C=c1c(OC)c(OC)c(O)c2c1=c1cc([N+](=O)[O-])cc(OC)c1=N2 | > 100 | > 100 | > 100 | > 100 | > 100 | > 100 | > 100 | > 100 | > 100 | > 100
33 | O=C(Nc1ccccc1C(=O)NCCCO)/C(=C/c1ccccc1O)NC(=O)c1ccccc1 | > 56.5 | > 100 | > 100 | 60 | > 100 | > 100 | > 100 | > 63.2 | > 94.5 | > 100
34 | Brc1ccc2c(-c3csc(-c4c[nH]c5cc(Br)ccc45)n3)c[nH]c2c1 | > 100 | 99.7 | > 100 | > 100 | 17.5 | > 100 | 53.8 | 63.2 | 53.2 | > 83.5
35 | CN(C)S(=O)(=O)Nc1nnc(S(N)(=O)=O)s1 | > 100 | > 100 | > 100 | > 100 | > 100 | > 100 | > 100 | > 100 | > 100 | > 100
36 | Cc1cn([C@@H]2C[C@H]2CO)c(=O)[nH]c1=O | > 100 | > 100 | > 100 | > 100 | > 100 | > 100 | > 100 | > 100 | > 100 | > 100
